Columns and labels:
[1] = test system: active seizures in an epileptic Entlebucher Mountain Dog; experiment: Arresting active seizures in canine; type: in vivo; conditions: single oral dose of 0.5-1.0 mg/kg in a formulation prepared according to Example 1
[2] = test system: chronic insomnia; experiment: Efficacy against insomnia in humans; type: in vivo; conditions: adult human with chronic insomnia; approximately 25 milligrams in a formulation prepared according to Example 3; self-reported
[3] = Solubility in ethanol:glycerol; type: physicochemical; conditions: in 25:75 by volume ethanol:glycerol; stated as lower than the 25 grams per liter of cannabidiol anion in the formulation
Source text: Cannabidiol is deprotonated in 0.5 molar potassium hydroxide in 190 proof ethanol to produce cannabidiol anion (2-(6-isopropenyl-3-methylcyclohex-2-en-1-yl)-3-hydroxy-5-pentylbenzene-1-oxide).

## C=C(C)C1CCC(C)=CC1c1c(O)cc(CCCCC)cc1O (centres unmarked) [cannabidiol anion, 2-(6-isopropenyl-3-methylcyclohex-2-en-1-yl)-3-hydroxy-5-pentylbenzene-1-oxide]
[1]
  arrest of active seizures: both consistently and instantaneously arrested active seizures
  seizure duration and severity: reduced seizure duration and severity

## CCCCCc1cc(O)c(CC=C(C)CCC=C(C)C)c(O)c1 [cannabigerol anion, 2-(3,7-dimethylocta-2,6-diene-1-yl)-3-hydroxy-5-pentylbenzene-1-oxide]
[2]
  onset time of sedative effect: less than five
  sedative effect on insomnia: effective at treating the insomnia

## C=C(C)[C@@H]1CCC(C)=C[C@H]1c1c(O)cc(CCCCC)cc1O [molecular cannabidiol, cannabidiol]
[3]
  solubility of molecular cannabidiol: < 25 grams per liter

— patent US12419855B2, “Compositions comprising cannabinoid ions that are dissolved in glycerol” (Natural Extraction Systems, LLC, priority 2019, dated 2025)
